US8716281B2, “Pyrimidine compounds that inhibit anaplastic lymphoma kinase” (Amgen Inc., priority 2010, dated 2014)

target: T1, wild-type human ALK cytoplasmic domain (amino acids 1058-1620) (Homo sapiens, UniProt Q9UM73); test: ALK Inhibition in Enzyme Assay (Lance TR-FRET); format: biochemical; details: 2 nM enzyme, ATP at 40 μM (Km apparent), 90 minutes, mean of three replicates; read-out: ALK IC50
T1 construct: The cytoplasmic domain (amino acids 1058-1620) of wild-type human ALK; GST (N); made in house; host or cells: SF9 insect cells
T1 sequence (Q9UM73 1058-1620): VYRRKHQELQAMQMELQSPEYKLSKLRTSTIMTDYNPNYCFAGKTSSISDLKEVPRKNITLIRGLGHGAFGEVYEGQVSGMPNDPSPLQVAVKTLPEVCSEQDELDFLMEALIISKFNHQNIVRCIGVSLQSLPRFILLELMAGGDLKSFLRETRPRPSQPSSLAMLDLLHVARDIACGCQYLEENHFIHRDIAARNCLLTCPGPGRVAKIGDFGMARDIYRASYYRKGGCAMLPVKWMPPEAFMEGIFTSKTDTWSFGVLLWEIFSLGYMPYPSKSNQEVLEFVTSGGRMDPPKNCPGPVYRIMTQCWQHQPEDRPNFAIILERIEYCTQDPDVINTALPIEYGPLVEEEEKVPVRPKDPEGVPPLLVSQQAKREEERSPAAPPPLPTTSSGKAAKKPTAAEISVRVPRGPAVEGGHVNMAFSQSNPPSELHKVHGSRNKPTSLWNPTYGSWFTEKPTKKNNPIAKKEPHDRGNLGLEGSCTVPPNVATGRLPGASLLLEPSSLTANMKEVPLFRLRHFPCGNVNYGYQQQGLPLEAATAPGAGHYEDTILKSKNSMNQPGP
Protocol: ALK Inhibition in Enzyme Assay
Kinase activity of the purified protein was assessed using a Lance® TR-FRET assay. […] The reaction was allowed to proceed for 90 minutes at room temperature and was then terminated with 20 mM EDTA in 50 mM Tris (pH 7.5), 100 mM NaCl, 0.05% BSA, and 0.1% Tween-20. Phosphorylation of the peptide substrate was detected using the Lance® detection reagents streptavidin-allophycocyanin (SA-APC) and Eu-W1024 anti-phosphotyrosine antibody (PT66) from Perkin Elmer Life Sciences (Waltham, Mass.). The plates were read on a RUBY star plate reader (BMG LABTECH, Cary, N.C.) with an excitation wavelength of 320 nm.

SMILES | IC50
COc1cc(Nc2nccc(N3CCC[C@H](C(=O)NCc4ccc(-n5cccn5)cc4)C3)n2)cc(OC)c1OC [Example 46, (S)-N-(4-(1H-pyrazol-1-yl)benzyl)-1-(2-((3,4,5-trimethoxyphenyl)amino)-4-pyrimidinyl)-3-piperidinecarboxamide] | 1000 to 5000 nM
COc1cccc([C@@H](C)NC(=O)[C@H]2CCCN(c3ccnc(Nc4cc(OC)c(OC)c(OC)c4)n3)C2)c1 [Example 48, (S)-N-((R)-1-(3-methoxyphenyl)ethyl)-1-(2-((3,4,5-trimethoxyphenyl)amino)-4-pyrimidinyl)-3-piperidinecarboxamide] | 1000 to 5000 nM
COc1cc(Nc2nccc(N3CCC[C@H](C(=O)NC(C)c4ccc(F)cc4)C3)n2)cc(OC)c1OC (stereo partly drawn) [Example 51, (S)-N-(1-(4-fluorophenyl)ethyl)-1-(2-((3,4,5-trimethoxyphenyl)amino)-4-pyrimidinyl)-3-piperidinecarboxamide] | 100 to 1000 nM
COc1cc(Nc2nccc(N3CCC[C@H](C(=O)NC(C)c4ccc(O)cc4)C3)n2)cc(OC)c1OC (stereo partly drawn) [Example 53, (S)-N-(1-(4-hydroxyphenyl)ethyl)-1-(2-((3,4,5-trimethoxyphenyl)amino)-4-pyrimidinyl)-3-piperidinecarboxamide] | 5000 to 10000 nM
COc1cc(Nc2nccc(N3CCC[C@H](C(=O)NC(C)(C)c4ccccc4)C3)n2)cc(OC)c1OC [Example 54, (S)-N-(1-methyl-1-phenylethyl)-1-(2-((3,4,5-trimethoxyphenyl)amino)-4-pyrimidinyl)-3-piperidinecarboxamide] | 1000 to 5000 nM
COc1cc(Nc2nccc(N3CCC[C@H](C(=O)NC(C)c4ccc(C)cc4)C3)n2)cc(OC)c1OC (stereo partly drawn) [Example 55, (S)-N-(1-(4-methylphenyl)ethyl)-1-(2-((3,4,5-trimethoxyphenyl)amino)-4-pyrimidinyl)-3-piperidinecarboxamide] | 100 to 1000 nM

Continued, values first:

IC50 | SMILES
50 to 100 nM | COc1cc(Nc2nccc(N3CCC[C@H](C(=O)NCc4ccc(Br)cc4)C3)n2)cc(OC)c1OC [Example 47, (S)-N-(4-bromobenzyl)-1-(2-((3,4,5-trimethoxyphenyl)amino)-4-pyrimidinyl)-3-piperidinecarboxamide]
1000 to 5000 nM | COc1cc(Nc2nccc(N3CCC[C@H](C(=O)NCc4ccccc4Br)C3)n2)cc(OC)c1OC [Example 49, (S)-N-(2-bromobenzyl)-1-(2-((3,4,5-trimethoxyphenyl)amino)-4-pyrimidinyl)-3-piperidinecarboxamide]
< 50 nM | COc1cc(Nc2nccc(N3CCC[C@H](C(=O)NCc4ccc(Br)cc4F)C3)n2)cc(OC)c1OC [Example 56, (S)-N-(4-bromo-2-fluorobenzyl)-1-(2-((3,4,5-trimethoxyphenyl)amino)-4-pyrimidinyl)-3-piperidinecarboxamide]
50 to 100 nM | COc1cc(Nc2nccc(N3CCC[C@H](C(=O)NCc4ccc(F)cc4F)C3)n2)cc(OC)c1OC [Example 57, (S)-N-(2,4-difluorobenzyl)-1-(2-((3,4,5-trimethoxyphenyl)amino)-4-pyrimidinyl)-3-piperidinecarboxamide]
< 50 nM | COc1cc(Nc2nccc(N3CCC[C@H](C(=O)NCc4cc(Br)ccc4F)C3)n2)cc(OC)c1OC [Example 58, (S)-N-(5-bromo-2-fluorobenzyl)-1-(2-((3,4,5-trimethoxyphenyl)amino)-4-pyrimidinyl)-3-piperidinecarboxamide]
1000 to 5000 nM | COc1cc(Nc2nccc(N3CCC[C@H](C(=O)NCc4nc(C)cs4)C3)n2)cc(OC)c1OC [Example 59, (S)-N-((4-methyl-1,3-thiazol-2-yl)methyl)-1-(2-((3,4,5-trimethoxyphenyl)amino)-4-pyrimidinyl)-3-piperidinecarboxamide]
50 to 100 nM | COc1cc(Nc2nccc(N3CCC[C@H](C(=O)NCCc4ccc(Br)cc4)C3)n2)cc(OC)c1OC [Example 60, (S)-N-(2-(4-bromophenyl)ethyl)-1-(2-((3,4,5-trimethoxyphenyl)amino)-4-pyrimidinyl)-3-piperidinecarboxamide]
